Laboratory results: patent US20210069295A1, “GALECTINS CONTROL MTOR IN RESPONSE TO ENDOMEMBRANE DAMAGE AND PROVIDE A MECHANISM AND TARGET FOR THE TREATMENT OF AUTOPHAGY-RELATED DISEASES” (STC. UNM, priority 2017, published 2021)
Peptide text beside a SMILES is read from it.

System: TFEB
Assay: TFEB nuclear translocation by high-content microscopy in HeLa cells
Type: cell-based
Conditions: 1 h full medium
Experimental: (A) Dose-response analysis of mTOR activity in HEK293T cells treated with glycyl-L-phenylalanine 2-naphththylamide (GPN) in full medium for 1 h. mTOR activity was monitored by inununoblotting analysis of S6K1 (T389) and ULK1 (S757) phosphorylation (phosphorylated S6K (T389) and ULK1 (S757) relative to total S6K and ULK1, respectively). (B) Analysis of mTOR activity (as in A) after GPN washout. HEK293T cells were treated with 100 μM GPN for 1 h followed by 1 h washout in full medium. Data, means±SEM (n=3), **p<0.01, ANOVA. (C) Analysis of mTOR activity (as in A) in HEK293T cells treated with increasing doses of silica in full medium for 1 h. (D) HEK293T cells were treated with lysosomal damaging agents (LLOMe, Leu-Leu-OMe) for 1 h in full medium and status of acidified organelles assessed by quantifying LysoTracker Red DND-99 puncta using automated high-content imaging and analysis (HC). […] Data, means±SEM, n≥3 independent experiments (500 primary objects counted per well; ≥5 wells/sample per each experiment), **p<0.01, ANOVA. […] Human peripheral blood monocyte derived macrophages were treated with 100 μM GPN in full medium or starved in EBSS for 1 h, and mTOR activity measured as in A. None-treated cells were as control (Ctrl). […] Data, means±SEM, n≥3 independent experiments (500 primary objects counted per well; ≥5 wells/sample per each experiment) **p<0.01, ANOVA. […]

## NCC(=O)N[C@@H](Cc1ccccc1)C(=O)Nc1ccc2ccccc2c1 [GPN, glycyl-L-phenylalanine 2-naphththylamide] (HELM PEPTIDE1{G.F.[c1ccc2cc(N[*:1])ccc2c1]}$$$$V2.0)
  TFEB nuclear translocation: translocated to the nucleus from the cytoplasm
